Calls of active or inactive are those of the source. The calls are words filed in the database; no cut-off is given here.
Key:
[1] = tested on: MG-63; assay: Cytotoxicity in human MG63 cells assessed as reduction in cell viability at 12.5 to 100 uM incubated for 72 hrs by acid phosphatase assay; format: functional, cell-based
[2] = tested on: HOS; assay: Cytotoxicity in human HOS cells assessed as reduction in cell viability at 12.5 to 100 uM incubated for 72 hrs by acid phosphatase assay; format: functional, cell-based
[3] = molecular target: Carbonic anhydrase 9 (Homo sapiens, UniProt Q16790); assay: Inhibition of human carbonic anhydrase 9 incubated for 15 mins by stopped flow CO2 hydrase assay
[4] = molecular target: Carbonic anhydrase 2 (Homo sapiens, UniProt P00918); assay: Inhibition of human carbonic anhydrase 2 incubated for 15 mins by stopped flow CO2 hydrase assay
[5] = molecular target: Carbonic anhydrase 1 (Homo sapiens, UniProt P00915); assay: Inhibition of human carbonic anhydrase 1 incubated for 15 mins by stopped flow CO2 hydrase assay
[6] = tested on: HOS; assay: Cytotoxicity in human HOS cells assessed as reduction in cell viability at 50 uM incubated for 72 hrs by acid phosphatase assay; format: functional
[7] = tested on: MG-63; assay: Antiproliferative activity against human MG63 cells assessed as reduction in cell viability incubated for 72 hrs by erythrosine B dye vital staining assay; format: functional, cell-based; conditions: MG-63, 72 h
[8] = tested on: HOS; assay: Induction of apoptosis in human HOS cells assessed as increase in caspase-3 activation at 50 uM incubated for 72 hrs by Caspase-GloR 3/7 assay; format: functional, cell-based
[9] = tested on: MG-63; assay: Cytotoxicity in human MG63 cells assessed as reduction in cell viability at 50 uM incubated for 72 hrs by acid phosphatase assay; format: functional
[10] = tested on: MG-63; assay: Induction of apoptosis in human MG63 cells assessed as increase in caspase-7 activation at 50 uM incubated for 72 hrs by Caspase-GloR 3/7 assay; format: functional, cell-based
[11] = tested on: MG-63; assay: Induction of apoptosis in human MG63 cells assessed as increase in caspase-3 activation at 50 uM incubated for 72 hrs by Caspase-GloR 3/7 assay; format: functional, cell-based
[12] = tested on: HOS; assay: Induction of apoptosis in human HOS cells assessed as increase in caspase-7 activation at 50 uM incubated for 72 hrs by Caspase-GloR 3/7 assay; format: functional, cell-based
[13] = tested on: HOS; assay: Antiproliferative activity against human HOS cells assessed as reduction in cell viability incubated for 72 hrs by erythrosine B dye vital staining assay; format: functional, cell-based
[14] = tested on: MG-63; assay: Cytotoxicity in human MG63 cells assessed as reduction in cell viability at 25 uM incubated for 72 hrs by acid phosphatase assay; format: functional
[15] = tested on: MG-63; assay: Induction of apoptosis in human MG63 cells assessed as increase in caspase-7 activation at 25 uM incubated for 72 hrs by Caspase-GloR 3/7 assay; format: functional, cell-based
[16] = tested on: MG-63; assay: Induction of apoptosis in human MG63 cells assessed as increase in caspase-3 activation at 25 uM incubated for 72 hrs by Caspase-GloR 3/7 assay; format: functional, cell-based
[17] = tested on: HOS; assay: Induction of apoptosis in human HOS cells assessed as increase in caspase-3 activation at 25 uM incubated for 72 hrs by Caspase-GloR 3/7 assay; format: functional, cell-based
[18] = tested on: HOS; assay: Cytotoxicity in human HOS cells assessed as reduction in cell viability at 25 uM incubated for 72 hrs by acid phosphatase assay; format: functional
[19] = tested on: HOS; assay: Induction of apoptosis in human HOS cells assessed as increase in caspase-7 activation at 25 uM incubated for 72 hrs by Caspase-GloR 3/7 assay; format: functional, cell-based

Carbonic anhydrase 1, sequence (P00915 whole entry): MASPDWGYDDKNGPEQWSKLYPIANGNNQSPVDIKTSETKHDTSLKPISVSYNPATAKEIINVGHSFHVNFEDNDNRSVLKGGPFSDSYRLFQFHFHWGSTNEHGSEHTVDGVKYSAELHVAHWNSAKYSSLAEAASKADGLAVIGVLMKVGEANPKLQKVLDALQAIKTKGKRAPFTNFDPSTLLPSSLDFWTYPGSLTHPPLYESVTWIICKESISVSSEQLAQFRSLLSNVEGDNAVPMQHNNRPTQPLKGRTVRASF

Row | Ki [3] | Ki [4] | Ki [5] | SMILES | Activity [1] | Activity [2] | Activity [6] | IC50 [7] | Activity [8] | Activity [9] | Activity [10] | Activity [11] | Activity [12] | IC50 [13] | Activity [14] | Activity [15] | Activity [16] | Activity [17] | Activity [18] | Activity [19]
1 | 0.0113 µM | 2.08 µM | 8.98 µM | O=C(/C=C(\O)C(=O)O)/C=C/c1ccc(NC(=O)c2ccc3ccccc3c2)cc1 | inactive | inactive | – | – | – | – | – | – | – | – | – | – | – | – | – | –
2 | 0.0902 µM | > 10 µM | 7.33 µM | CCOC(=O)/C(O)=C/C(=O)/C=C/c1ccc(NC(=O)c2ccccc2)cc1 | – | – | – | – | – | – | – | – | – | – | – | – | – | – | – | –
3 | 0.0125 µM | 5.03 µM | > 10 µM | O=C(/C=C(\O)C(=O)O)/C=C/c1ccc(NC(=O)c2ccccc2)cc1 | – | – | – | – | – | – | – | – | – | – | – | – | – | – | – | –
4 | 0.0128 µM | 2.58 µM | > 10 µM | O=C(/C=C(\O)C(=O)O)/C=C/c1ccc(NC(=O)c2cccc3ccccc23)cc1 | – | – | – | – | – | – | – | – | – | – | – | – | – | – | – | –
5 | 0.0126 µM | 9.44 µM | 6.18 µM | CCOC(=O)/C(O)=C/C(=O)/C=C/c1ccc(NC(=O)c2ccc3ccccc3c2)cc1 | Dose-dependent effect | Dose-dependent effect | 50% | 45.8 µM | inactive | 50% | inactive | inactive | inactive | 19.2 µM | – | – | – | – | – | –
6 | 0.0379 µM | 8.65 µM | > 10 µM | CCOC(=O)/C(O)=C/C(=O)/C=C/c1ccc(NC(=O)c2cccc3ccccc23)cc1 | Dose-dependent effect | Dose-dependent effect | – | 14.7 µM | – | – | – | – | – | 15.6 µM | 16.4% | inactive | inactive | inactive | 19.7% | inactive
